Experimental data published in patent US20090054515A1, “SKIN-WHITENING COSMETIC” (POLA CHEMICAL INDUSTRIES INC., priority 2006, published 2009).

Key:
Trp-2 = test: Expression of Trp-2 by Western blotting; type: cell-based; conditions: 5 μM, 72-hour culture, human normal melanocytes
Experimental: (§1) A cell suspension of human normal melanocytes (from Kurabo Industries Ltd.) in a medium for culturing melanocytes (Medium 254, from Kurabo Industries Ltd.) was prepared at 7×10^4 cells/mL and inoculated into φ10-cm culture petri dishes in an amount of 10 mL per dish, and the cells were cultured in a CO2 incubator (37° C., 5% CO2). The next day, the medium was removed, and a medium for culturing melanocytes containing 2 μM or 5 μM Compound (1) or a medium for culturing melanocytes (control) was added in an amount of 10 mL per dish, followed by culture in a CO2 incubator for 72 hours. After 72-hour culture, the medium was removed, and the cells were washed with phosphate buffered saline (PBS) and collected using a cell scraper. A protein extraction solution (0.1% NP-40, 0.01% SDS, 10 mM sodium phosphate buffer (pH 6.8), protease inhibitor) was added to the cell pellets to suspend the cells, and the suspension was shaken at 4° C. for 1 hour. The resultant was centrifuged at 4° C. and 15,000 rpm for 10 minutes, and the supernatant was collected and used as a crude protein extract. […]
(§2) The membrane was washed with TPBS, and proteins were detected using an ECL Plus western blotting detection system. […]

Trp-1 = test: Expression of Trp-1 by Western blotting; type: cell-based; conditions: 5 μM, 72-hour culture, human normal melanocytes
Experimental: as §1, §2

tyrosinase = test: Expression of tyrosinase by Western blotting; type: cell-based; conditions: 5 μM, 72-hour culture, human normal melanocytes
Experimental: as §1, §2

human normal melanocytes = test: Melanin formation inhibition test (14C-thiouracil uptake); type: cell-based; conditions: for Melanin level (%): three days culture, % of control
Experimental: The melanin formation inhibitory action of Compound (1) was evaluated using thiouracil (in this test, thiouracil labeled with ^14C was used), which is specifically taken into cells in a melanin synthesis process. A complete medium for culturing melanocytes (from Kurabo Industries Ltd.) was added to 15 wells of a 24-well plate in an amount of 2 ml per well, and human normal melanocytes (from Kurabo Industries Ltd.) were inoculated into each well at a concentration of 1.5×10^4 cells/cm^2. The cells were cultured at 37° C. for 24 hours under 5% carbon dioxide atmosphere. Thereafter, in all the wells, the medium was exchanged under the following conditions. That is, a fresh complete medium for culturing melanocytes was added to three wells (control), complete mediums for culturing melanocytes containing Compound (1) at concentrations of 1.0×10^−3 mM, 2.0×10^−3 mM, and 4.0×10^−3 mM were added to three wells each (total: nine wells), and a complete medium for culturing melanocytes containing 0.1 mM phenylthiourea, which is known as a tyrosinase inhibitor, was added to other three wells. In addition, to those 15 wells was added ^14C-thiouracil (thiouracil labeled with ^14C) was added at 0.25×10^−6 Ci (curie). The cells were cultured under the same conditions as above for further three days. After completion of the culture, the culture solution was removed from the wells, and the cells were washed with PBS (phosphate buffered saline) and detached with a medium containing trypsin and EDTA from the bottom of each well to produce cell suspensions, followed by centrifugation to collect the cells. The numbers of the cells were counted using a blood cell counting chamber. Thereafter, the ^14C-thiouracil level in the cells collected from each well was determined using a liquid scintillation counter. The percentage of a radiation dose of the cells cultured in each medium containing a test substance based on a radiation dose of the cells collected from the control wells was calculated to determine a melanin level (%). That is, it is considered that the smaller the radiation dose taken in the cells is, the smaller the melanin level is, resulting in a large melanin inhibition titer.

[1] = molecular target: T1, tyrosinase extracted from normal human melanocytes (Homo sapiens, UniProt P14679); test: Normal human melanocytes tyrosinase activity inhibition test (dopa-oxidizing activity); type: biochemical; conditions: for Dopa-oxidizing activity: control defined as 100%, 10 minutes at 37° C.; for action on the activity of tyrosinase: 1 to 100 μM
T1 construct: to thereby produce a protein solution, which was used as a crude tyrosinase protein solution; host or cells: human normal melanocytes; extract made with a Subcellular Proteome Extraction Kit (Calbiochem)
T1 sequence (P14679 19-529): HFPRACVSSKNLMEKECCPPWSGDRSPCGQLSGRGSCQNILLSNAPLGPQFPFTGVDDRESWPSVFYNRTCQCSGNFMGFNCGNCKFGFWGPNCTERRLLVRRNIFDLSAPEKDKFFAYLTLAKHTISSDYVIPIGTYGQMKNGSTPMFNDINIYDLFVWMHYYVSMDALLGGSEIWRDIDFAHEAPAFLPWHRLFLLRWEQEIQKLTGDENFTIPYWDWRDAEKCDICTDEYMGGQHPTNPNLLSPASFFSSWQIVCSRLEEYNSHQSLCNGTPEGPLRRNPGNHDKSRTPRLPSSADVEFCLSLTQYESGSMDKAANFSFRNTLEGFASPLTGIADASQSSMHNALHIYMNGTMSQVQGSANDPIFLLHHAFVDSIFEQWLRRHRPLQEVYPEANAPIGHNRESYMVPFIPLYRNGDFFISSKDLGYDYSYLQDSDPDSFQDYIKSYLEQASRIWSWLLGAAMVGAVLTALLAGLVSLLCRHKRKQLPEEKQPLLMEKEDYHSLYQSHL
Experimental: Human normal melanocytes (from Kurabo Industries Ltd.), cultured in a medium for culturing melanocytes (Medium 254, from Kurabo Industries Ltd.), were collected using a cell scraper, and extraction was performed for the cells using PreteoExtract™ Subcellular Proteome Extraction Kit (Calbiochem), to thereby produce a protein solution, which was used as a crude tyrosinase protein solution. The dopa-oxidizing activity of the tyrosinase protein solution was measured to evaluate the tyrosinase activity-inhibiting action of Compound (1).
A 0.1% dopa solution, serving as a substrate, was prepared by dissolving L-β-(3,4-dihydroxyphenyl)alanine (L-DOPA) in 10 mM sodium phosphate buffer (pH 6.8) at a concentration of 0.1 (w/v) %. A crude tyrosinase protein solution, prepared to 1 to 5 μg/80 μL, was fed into a 96-well plate in an amount of 80 μL per well, and solutions of 10 μM, 100 μM, and 1,000 μM Compound (1) in DMSO were separately added to three wells each in an amount of 20 μL per well. Meanwhile, as positive controls, solutions of 10 μM, 100 μM, and 1,000 μM phenylthiourea, known as a tyrosinase activity inhibitor, in DMSO were separately added in the same way as above to different three wells each in an amount of 20 μL per well. In addition, as a control, DMSO was added to another different three wells each in an amount of 20 μL per well. Immediately after 100 μL each of the 0.1% dopa solution was added to the wells each containing the above-described test solution, absorbances at 450 nm were measured using a plate reader and were defined as 0-minute values. The 96-well plate was incubated at 37° C. for 10 minutes in the plate reader, and the absorbances at 450 nm were measured again and defined as 10-minute values. A value calculated by subtracting the 0-minute value from the 10-minute value of each well was defined as a 0→10 minute absorbance change value, and the average of 0→10 minute absorbance change value of control was defined as 100%, followed by measurement of dopa-oxidizing activities in the cases of treatments with various concentrations of test substances.

SMILES | expression level of Trp-2 (Trp-2) | expression level of Trp-1 (Trp-1) | expression level of tyrosinase (tyrosinase) | melanin formation inhibitory action (human normal melanocytes; 1.0-4.0 × 10^−3 mM) | Melanin level (%) (human normal melanocytes; 1.0 × 10^−3 mM in medium) | Melanin level (%) (human normal melanocytes; 2.0 × 10^−3 mM in medium) | Melanin level (%) (human normal melanocytes; 4.0 × 10^−3 mM in medium) | melanin formation inhibition titer relative to phenylthiourea (positive control) (human normal melanocytes; Compound (1) 4.0×10^−3 mM versus phenylthiourea 0.1 mM) [times] | inhibition of melanin formation (human normal melanocytes; cultured cell system of Test Example 1, concentration 25-fold lower than 100 μM) [%] | Dopa-oxidizing activity ([1]; 1 μM added substance) [%] | Dopa-oxidizing activity ([1]; 10 μM added substance) [%] | Dopa-oxidizing activity ([1]; 100 μM added substance) [%] | action on the activity of tyrosinase [1] | Melanin level (%) (human normal melanocytes; 0.1 mM in medium)
CC(C)(C)c1cc(C(=O)c2cccs2)cc(C(C)(C)C)c1O [Compound (1), 2,6-di-tert-butyl-4-(2′-thenoyl)phenol] | did not affect | did not affect | did not affect | concentration-dependent melanin formation inhibitory action | 48.5 ± 2.3 | 27.9 ± 0.8 | 17.0 ± 0.8 | ≥ 20 | ≥ 80 | 103.55 ± 1.34 | 102.52 ± 3.68 | 102.52 ± 2.19 | did not inhibit the activity of tyrosinase | –
NC(=S)Nc1ccccc1 [Phenylthiourea, phenylthiourea, reference compound] | – | – | – | – | – | – | – | – | – | 64.07 ± 1.53 | 22.52 ± 1.09 | 4.73 ± 2.07 | had an action of inhibiting the activity of tyrosinase | 20.3 ± 3.8
